Measurements: US20250361239A1, “PROTEIN DEGRADERS AND USES THEREOF” (ZHUHAI YUFAN BIOTECHNOLOGIES CO., LTD., priority 2022, published 2025)

Columns and labels:
Type in all cases: cell-based
[1] = tested on: HL60 cells; test: HL60 cell killing experiment (CellTiter-Glo cell viability); conditions: CTG luminescence
Description: (§1) HL60 cell lines were purchased from ATCC (Cat #ATCC® CCL-240™), IMDM media were purchased from ATCC (Cat #ATCC® 30-2005™), FBS was purchased from Gibco (Cat #10091148), celltiter-glo luminescent cell viability assay was purchased from promega (Cat #G7572), and 96-well plates were purchased from corning (Cat #3610).
(§2) The effect of compounds on the growth of HL60 cells was determined by measuring cell viability. Firstly, cells in the logarithmic growth phase were collected and centrifuged, and the culture supernatant was discarded. The centrifuged cells were resuspended in a fresh complete medium, and the cell density was adjusted to 5×10^4 cells/mL. The resuspended cells were inoculated into two opaque 96-well cell culture plates at 100 μL of cell suspension per well, and the cell culture plates were incubated in a cell incubator at 37° C. for 4 h. After 4 h, dilutions (20 μL) of compounds with different concentrations were added. After one of the cell plates was cooled to room temperature, 60 μL of CTG reagent was added, and the luminescence values were read on the instrument as G0. The other one was incubated in a cell incubator for 48 h. After 48 h, 60 μL of CTG reagent was added, and the luminescence values were read on the instrument as G3.
(§3) According to the corresponding proliferation rate and concentration of each gradient concentration well, a gradient curve of cell proliferation was fitted using XLFit software, and the GI50 values of compounds were calculated.

[2] = tested on: Hep3B cells; test: Hep3B cell killing experiment (CellTiter-Glo cell viability); conditions: Homo sapiens, 48 h incubation, CTG luminescence
Description: as §1, with “Hep3B” for “HL60”, “HB-8064™), EMEM” for “CCL-240™), IMDM”, “30-2003™),” for “30-2005™),”, “coming” for “corning”
The effect of compounds on the growth of Hep3B cells was determined by measuring cell viability and growth rate. Firstly, the cells were digested with pancreatin, and the digestion was then terminated with medium. The cells were centrifuged, and the supernatant was discarded. The centrifuged cells were resuspended in a fresh complete medium, and the cell density was adjusted to 5×10^4 cells/mL. The resuspended cells were inoculated into two identical opaque 96-well cell culture plates at 100 μL of cell suspension per well, and the cell culture plates were incubated in a cell incubator at 37° C. overnight. The next day, dilutions (20 μL) of compounds with different concentrations were added. After one of the cell plates was cooled to room temperature, 60 μL of CTG reagent was added. The luminescence values were read on the instrument as G0. The other one was incubated in a cell incubator for 48 h. After 48 h, 60 μL of CTG reagent was added, and the luminescence values were read on the instrument as G3.
as §3

[3] = tested on: NCI-H929 cells; test: NCI-H929 cell killing experiment (CellTiter-Glo cell viability); conditions: Homo sapiens, 48 h incubation, CTG luminescence
Description: as §1, with “NCI-H929” for “HL60”, “CRL-9068™), RPMI1640” for “CCL-240™), IMDM”, “30-2001™),” for “30-2005™),”, “coming” for “corning”
as §2, with “2. Method The effect” for “The effect”, “growth of NCI-H929 cells was” for “growth of HL60 cells was”, “measuring cell viability and growth rate. Firstly, cells” for “measuring cell viability. Firstly, cells”, “into two identical opaque 96-well” for “into two opaque 96-well”
as §3

[4] = biological target: T1, GSPT1 (Homo sapiens, UniProt P15170+Q96SW2); test: Degradation of GSPT1 by the compounds (HiBiT signal in GSPT1/HEK293 hibit cells); conditions: 6 h incubation, Nano Glo HiBiT Lytic Detection
T1 construct: host or cells: HEK293
T1 sequence (P15170 whole entry): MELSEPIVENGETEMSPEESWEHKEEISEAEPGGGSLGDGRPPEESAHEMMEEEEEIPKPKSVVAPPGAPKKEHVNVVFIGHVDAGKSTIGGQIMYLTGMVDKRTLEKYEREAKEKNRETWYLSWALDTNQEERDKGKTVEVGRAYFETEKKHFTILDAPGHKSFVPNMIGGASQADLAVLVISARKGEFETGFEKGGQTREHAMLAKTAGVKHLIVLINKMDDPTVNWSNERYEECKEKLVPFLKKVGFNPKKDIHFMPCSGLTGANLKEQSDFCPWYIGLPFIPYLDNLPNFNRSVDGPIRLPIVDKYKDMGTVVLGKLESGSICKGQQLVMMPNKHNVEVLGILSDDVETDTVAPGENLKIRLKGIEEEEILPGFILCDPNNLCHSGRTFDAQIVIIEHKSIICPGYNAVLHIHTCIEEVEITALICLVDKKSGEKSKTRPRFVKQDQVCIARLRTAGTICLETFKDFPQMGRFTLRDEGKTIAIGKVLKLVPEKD
T1 sequence (Q96SW2 whole entry): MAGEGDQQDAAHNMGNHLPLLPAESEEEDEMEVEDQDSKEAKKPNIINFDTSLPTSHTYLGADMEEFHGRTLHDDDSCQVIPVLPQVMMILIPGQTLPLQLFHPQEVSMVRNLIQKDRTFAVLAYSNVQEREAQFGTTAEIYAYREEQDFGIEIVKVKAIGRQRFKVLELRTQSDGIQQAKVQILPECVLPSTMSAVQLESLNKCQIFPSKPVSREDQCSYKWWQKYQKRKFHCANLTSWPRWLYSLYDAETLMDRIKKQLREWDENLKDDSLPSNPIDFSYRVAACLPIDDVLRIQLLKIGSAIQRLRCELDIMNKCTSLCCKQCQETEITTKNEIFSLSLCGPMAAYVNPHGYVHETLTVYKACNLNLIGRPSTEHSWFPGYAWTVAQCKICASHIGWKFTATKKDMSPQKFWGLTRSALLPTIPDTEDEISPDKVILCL
T1 sequence (Q16531 whole entry partner): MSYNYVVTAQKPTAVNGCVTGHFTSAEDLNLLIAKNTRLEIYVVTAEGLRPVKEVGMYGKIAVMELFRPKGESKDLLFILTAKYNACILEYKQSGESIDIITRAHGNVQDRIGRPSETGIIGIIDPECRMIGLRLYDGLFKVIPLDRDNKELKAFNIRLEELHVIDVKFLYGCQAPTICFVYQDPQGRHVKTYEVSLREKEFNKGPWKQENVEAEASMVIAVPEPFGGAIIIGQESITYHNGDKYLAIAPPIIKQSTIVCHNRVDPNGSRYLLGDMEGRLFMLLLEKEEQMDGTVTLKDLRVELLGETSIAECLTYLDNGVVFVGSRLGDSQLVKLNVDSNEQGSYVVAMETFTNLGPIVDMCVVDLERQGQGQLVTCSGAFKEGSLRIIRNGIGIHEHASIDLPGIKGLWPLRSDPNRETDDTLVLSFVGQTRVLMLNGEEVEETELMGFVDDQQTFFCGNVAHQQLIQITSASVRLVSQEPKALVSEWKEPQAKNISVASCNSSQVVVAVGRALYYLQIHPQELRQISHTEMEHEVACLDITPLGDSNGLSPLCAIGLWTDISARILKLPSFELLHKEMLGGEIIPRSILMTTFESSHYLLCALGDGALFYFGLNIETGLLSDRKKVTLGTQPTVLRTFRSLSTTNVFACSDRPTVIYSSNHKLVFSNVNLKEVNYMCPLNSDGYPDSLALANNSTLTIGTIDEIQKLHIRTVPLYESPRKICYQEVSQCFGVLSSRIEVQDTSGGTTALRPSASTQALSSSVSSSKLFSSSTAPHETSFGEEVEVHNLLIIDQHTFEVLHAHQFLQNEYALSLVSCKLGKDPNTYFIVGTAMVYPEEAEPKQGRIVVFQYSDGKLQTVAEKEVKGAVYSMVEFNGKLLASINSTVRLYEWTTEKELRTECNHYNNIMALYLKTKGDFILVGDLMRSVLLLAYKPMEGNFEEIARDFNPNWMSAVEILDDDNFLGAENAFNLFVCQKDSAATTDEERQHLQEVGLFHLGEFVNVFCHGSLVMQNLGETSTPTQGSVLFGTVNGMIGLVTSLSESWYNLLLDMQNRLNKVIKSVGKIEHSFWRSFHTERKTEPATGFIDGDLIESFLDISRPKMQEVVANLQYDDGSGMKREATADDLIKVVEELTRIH
Description: GSPT1/HEK293 hibit cell lines were constructed by Shanghai BioDuro Co., Ltd., HEK293 cell lines were purchased from ATCC (Cat #ATCC® CRL-1573™), DMEM media were purchased from ATCC (Cat #ATCC® 30-2002™), FBS was purchased from Gibco (Cat #10091148), Nano Glo HiBiT Lytic Detection System was purchased from Promega (Cat #N3040), and 96-well plates were purchased from coming (Cat #3610).
The degradation of GSPT1 by the compounds was determined by measuring the intensity of hibit signals in cells. Firstly, the cells were digested with pancreatin, and the digestion was then terminated with medium. The cells were centrifuged, and the supernatant was discarded. The centrifuged cells were resuspended in a fresh complete medium, and the cell density was adjusted to 2.5×10^4 cells/mL. The resuspended cells were inoculated into an opaque 96-well cell culture plate at 100 μL of cell suspension per well, and the cell culture plate was incubated in a cell incubator at 37° C. overnight. The next day, dilutions (20 μL) of compounds with different concentrations were added, and the plate was incubated in a cell incubator for 6 h. After 6 h, 60 μL of Nano Glo HiBiT Lytic Detection System reagent was added and the luminescence values were read on the instrument.
According to the corresponding degradation rate and concentration of each gradient concentration well, a gradient curve of degradation rate was fitted using XLFit software, and the DC50 values of compounds were calculated.

[5] = tested on: Jurkat cells; test: Jurkat cell killing experiment (CellTiter-Glo cell viability); conditions: Homo sapiens, 48 h incubation, CTG luminescence
Description: as §1, with “Jurkat” for “HL60”, “TIB-152™), RPMI1640” for “CCL-240™), IMDM”, “30-2001™),” for “30-2005™),”, “coming” for “corning”
as §2, with “Jurkat” for “HL60”, “viability and growth rate.” for “viability.”, “two identical” for “two”
as §3

[6] = tested on: Toledo cells; test: Toledo cell killing experiment (CellTiter-Glo cell viability); conditions: Homo sapiens, 48 h incubation, CTG luminescence
Description: as §1, with “Toledo” for “HL60”, “CRL-2631™), RPMI1640” for “CCL-240™), IMDM”, “30-2001™),” for “30-2005™),”, “coming” for “corning”
as §2, with “Toledo” for “HL60”, “viability and growth rate.” for “viability.”, “two identical” for “two”
as §3

[7] = tested on: SU-DHL-2 cells; test: SU-DHL-2 cell killing experiment (CellTiter-Glo cell viability); conditions: Homo sapiens, 48 h incubation, CTG luminescence
Description: as §1, with “SU-DHL-2” for “HL60”, “CRL-2956™), RPMI1640” for “CCL-240™), IMDM”, “30-2001™),” for “30-2005™),”, “coming” for “corning”
as §2, with “SU-DHL-2” for “HL60”, “viability and growth rate.” for “viability.”, “two identical” for “two”
as §3

[8] = tested on: THP-1 cells; test: THP-1 cell killing experiment (CellTiter-Glo cell viability); conditions: Homo sapiens, 48 h incubation, CTG luminescence
Description: as §1, with “THP-1” for “HL60”, “TIB-202™), RPMI1640” for “CCL-240™), IMDM”, “30-2001™),” for “30-2005™),”, “coming” for “corning”
as §2, with “THP-1” for “HL60”, “viability and growth rate.” for “viability.”, “two identical” for “two”
as §3

[9] = Homo sapiens, HL-60, 48 h incubation

DC50 [4] [nM] | SMILES | GI50 [1, 9] [nM] | GI50 [2] [nM] | GI50 [3] [nM] | GI50 [5] [nM] | GI50 [6] [nM] | GI50 ([1]; 48 h incubation) [nM] | GI50 [7] [nM] | GI50 [8] [nM]
< 100 | Cn1c(C2CCC(NC(=O)C3CC(CNc4cccc5c4C(=O)N(C4CCC(=O)NC4=O)C5=O)C3)CC2)nc2ccncc21 (centres unmarked) [Example 10] | < 100 | 6.91 | 19.6 |  |  |  |  | 
< 100 | CC(C)n1c(C2CCC(NC(=O)c3cccc(CNc4cccc5c4C(=O)N(C4CCC(=O)NC4=O)C5=O)c3)CC2)nc2cccnc21 (centres unmarked) [Example 83] | < 100 | 7.88 | 5.49 |  |  |  |  | 67.6
< 100 | COc1ccc(CNc2cccc3c2C(=O)N(C2CCC(=O)NC2=O)C3=O)cc1C(=O)N[C@H]1CC[C@H](c2nc3cccnc3s2)CC1 (some centres unmarked) [Example 94] | < 100 |  |  | 2.51 |  |  |  | 
< 100 | Cn1c(C2CCC(NC(=O)CCCCNc3cccc4c3C(=O)N(C3CCC(=O)NC3=O)C4=O)CC2)nc2c3c(C4CCOCC4)c[nH]c3ncc21 (centres unmarked) [Example 113] | < 100 |  |  |  | 1.53 |  |  | 

Further lines, the molecule ahead of its results:

SMILES | DC50 [4] [nM] | GI50 [1, 9] [nM] | GI50 [2] [nM] | GI50 [3] [nM] | GI50 [5] [nM] | GI50 [6] [nM] | GI50 ([1]; 48 h incubation) [nM] | GI50 [7] [nM] | GI50 [8] [nM]
Cn1c2cnccc2nc1[C@H]1CC[C@H](NC(=O)c2cc(CNc3cccc4c3C(=O)N(C3CCC(=O)NC3=O)C4=O)ccn2)CC1 (some centres unmarked) [Example 26] | < 100 | < 100 | 2.7 |  | 2.24 | 11.7 |  |  | 
Cn1c(C2CCC(NC(=O)c3cc(CNc4cccc5c4C(=O)N(C4CCC(=O)NC4=O)C5=O)ccn3)CC2)nc2ccncc21 (centres unmarked) [Example 39] | < 100 |  | 0.99 |  | 1.73 | 3.58 | < 100 |  | 
O=C1CCC(N2C(=O)c3cccc(NCc4cccc(C(=O)N[C@H]5CC[C@H](c6nc7cccnc7s6)CC5)c4)c3C2=O)C(=O)N1 (some centres unmarked) [Example 61] | < 100 | < 100 | 1.48 | 1.08 |  | 5.31 |  |  | 
Cn1c2cnccc2nc1[C@H]1CC[C@H](N2Cc3ccc(CNc4cccc5c4C(=O)N(C4CCC(=O)NC4=O)C5=O)cc3C2=O)CC1 (some centres unmarked) [Example 70] | < 100 | < 100 | 5.21 | 1.63 |  |  |  | 22.3 | 
O=C1CCC(N2C(=O)c3cccc(NCc4cccc(NC(=O)[C@H]5CC[C@H](c6nc7cccnc7s6)CC5)c4F)c3C2=O)C(=O)N1 (some centres unmarked) [Example 81] | < 100 | < 100 |  | 0.33 | 11.4 | 4.03 |  | 5.62 | 
COc1ccc2c(c1)nc([C@H]1CC[C@H](N(C)C(=O)c3cc(CNc4cccc5c4C(=O)N(C4CCC(=O)NC4=O)C5=O)ccn3)CC1)n2C (some centres unmarked) [Example 105] |  |  |  |  | 1.3 |  |  |  | 
Cn1c2cc(N)ccc2nc1[C@H]1CC[C@H](NC(=O)c2cc(CNc3cccc4c3C(=O)N(C3CCC(=O)NC3=O)C4=O)ccn2)CC1 (some centres unmarked) [Example 130] | < 100 | < 100 |  |  |  |  |  |  | 
